Laboratory results taken from paper PMC9743128, “Phenotype-based screening rediscovered benzopyran-embedded microtubule inhibitors as anti-neuroinflammatory agents by modulating the tubulin–p65 interaction” (Experimental & Molecular Medicine, 2022).
Like-named read-outs stand apart in the source and are kept apart here.

Key:
[1] = system: LPS-mediated NO release in BV-2 microglial cells; test: Griess assay: cellular NO release after LPS treatment; type: cell-based, murine; details: for IC50: 100 ng/mL LPS, 24 h
Description: Cellular secretion of nitric oxide (NO) was quantified with the Griess assay. BV-2 cells were seeded on a clear flat bottom TC-treated 96-well plate (Corning; #3598) and sealed with breathable sealing tape (Axygen; BF-400-S). After 18 h, BV-2 cells were treated with compounds in the absence or presence of 100 ng/mL LPS (Sigma; L4391). After 24 h, 50 μL of the cell culture media was mixed with the same volume of Griess reagent {0.1% naphthylethylenediamine dihydrochloride (Sigma; #222488) and 1% sulfanilamide (Sigma; S9251) in 4% phosphoric acid (Daejung; #6532-4405)}. Absorbance at 550 nm was measured using a microplate reader (BioTek; Synergy). Sodium nitrite (Alfa Aesar; A18668) was used for standard curve generation.
Microglia are tissue-resident macrophages involved in CNS immunosurveillance[3],[39]. Microglial activation induces proinflammatory cytokine tumor necrosis factor α (TNF-α) expression, resulting in neural toxicity[5],[6]. Therefore, the inhibition of microglial activation is critical for regulating neuroinflammation. To discover anti-neuroinflammatory NCEs, we monitored the cellular release of nitric oxide (NO) in response to lipopolysaccharide (LPS) treatment as a mimic of pathogenic activation of innate immune systems upon compound treatment in BV-2 cells using the Griess assay.

[2] = system: BV-2 cells; test: Cell viability assay (EZ-Cytox); details: 10 μM
[3] = system: TNF-α secretion in BV-2 cells; test: TNF-α ELISA of culture medium after LPS; type: cell-based, murine; details: 10 μM
Description: BV-2 and RAW264.7 cells were treated with compounds in the absence or presence of LPS (100 ng/ml). After 24 h, TNF-α levels in the culture medium were measured using a TNF-α ELISA kit (R&D Systems; DY410) according to the manufacturer’s protocol. Briefly, capture antibodies were coated on 96-well Maxisorp Nunc-Immuno plates (Thermo; #439454) for 1 h and washed with PBS containing 0.05% Tween-20 (PBST) three times. The plates were blocked with 1% BSA-PBS for 1 h and washed with PBST three times. Culture medium was added to the 96-well plate for 1 h and washed with PBST three times. Biotinylated detection antibody was added to the 96-well plate for 1 h and washed with PBST three times. Streptavidin–horseradish peroxidase (HRP) was added to the plate for 20 min and washed with PBST three times. After 20 min of incubation with TMB substrate (Thermo; #002023), TMB oxidation was stopped by adding 2 N H2SO4. The absorbance at 450 nm, 540 nm, and 570 nm was measured using a microplate reader (BioTek; Synergy). The following formula was used to calculate the net signal: OD450nm–(OD540nm + OD570nm)/2.
Fig. 2 SB26019 has anti-inflammatory activity via the accumulation of tubulin monomers. SB26019 (10 μM for 6 h) regulated the mRNA levels (a) and protein levels (b) of downstream genes of NF-κB in BV-2 murine microglial cells more efficiently than the other known tubulin modulators (n = 3). c Both tubulin modulators (10 μM for 6 h) and transient Flag-tagged α-tubulin overexpression increased the total amount of tubulin monomers. d Quantification of the amount of tubulin polymer vs. monomer in (c). Tubulin modulators (10 μM for 6 h) and transient Flag-tagged α-tubulin overexpression proportionally regulated the NF-κB signaling pathway at the mRNA (e) and protein levels f in RAW264.7 murine macrophage cells (n = 3). Data are presented as the mean ± SD (ns, not significant, p > 0.05; *p < 0.05; **p < 0.01; ***p < 0.001).

[4] = system: p65 nuclear translocation in J774A.1 and RAW264.7 cells; test: p65 nuclear translocation by immunofluorescence staining; type: cell-based, murine; details: 10 μM for 1 h, then LPS; LPS alone 80%, basal 40%
Description: To monitor p65 translocation, J774A.1 cells were treated with compounds for 1 h, followed by LPS (100 ng/ml) treatment for 30 min. The cells were fixed with 4% paraformaldehyde (Sigma; #158127) in PBS (w/v) for 30 min at room temperature. After washing with 1× PBS (Welgene; ML008-02) three times, the fixed cells were permeabilized with PBS containing 0.1% Triton X-100 for 10 min. The cells were washed with 1× PBS three times and then blocked with 4% bovine serum albumin (MP Biomedicals; #0216006980) in PBS (w/v) for 1 h. The cells were incubated with mouse anti-p65 antibody (Santa Cruz; sc-8008, 1:200 diluted in 1% BSA–PBS) at 4 °C overnight and washed with PBS three times. FITC-labeled goat anti-mouse IgG antibody (Abcam; ab6785, 1:200 diluted in 1% BSA–PBS) was added to the sample and incubated for 1 h at room temperature. The remaining antibodies were finally washed three times with PBS. Nuclei were stained with Hoechst 33342 (Thermo; #62249). The cellular p65 proteins were imaged by fluorescence microscopy (GE Healthcare; Delta Vision) and quantified by the line profiling method.
During activation of the NF-κB signaling pathway, IκB is phosphorylated and degraded by proteasomes. The released p65 from IκB is translocated to the nucleus, inducing the transcription of target genes for inflammatory responses. Therefore, we monitored the translocation of p65 upon SB26019 treatment in J774A.1 and RAW264.7 murine macrophage cells stained with fluorescently labeled antibodies. […]

[5] = in vitro; details: mouse
[6] = target: T1, tubulin (Homo sapiens, UniProt P07437+P68363); test: Cellular thermal shift assay (CETSA); type: cell-based
T1 construct: endogenous in cells

[7] = Cell viability assay (EZ-Cytox); details: mouse, BV-2 microglial cells
[8] = target: T2, tubulin (Sus scrofa, UniProt P02550+P02554); test: Tubulin polymerization assay; type: biochemical; details: 1 μM compound
T2 construct: purchased Cytoskeleton BK006P
Description: The tubulin polymerization inhibition efficacy of the compounds was measured by a tubulin polymerization assay kit (Cytoskeleton; BK006P) according to the manufacturer’s manual. Absorbance at 340 nm was measured to observe the formation of tubulin polymers using a microplate reader (Biotek; Synergy).
Supplementary Fig. 4. Tubulin polymerization inhibition by compounds 1–13 (1 μM). In the presence or absence of compounds, tubulin was incubated to polymerize at room temperature. Absorbance at 340 nm was measured in a time-dependent manner for monitoring the rate of tubulin polymerization.
Supplementary Table 2. Tubulin polymerization inhibition of the focused library. Tubulin was incubated with each compound (1 μM) and the tubulin polymerization inhibition was monitored. Vmax was calculated from tubulin polymer generation curve data of Supplementary Fig. 3.

[9] = Mus musculus, BV-2 cells, LPS, read-out: % NO inh. at 10 μM

T2 sequence (P02554 whole entry): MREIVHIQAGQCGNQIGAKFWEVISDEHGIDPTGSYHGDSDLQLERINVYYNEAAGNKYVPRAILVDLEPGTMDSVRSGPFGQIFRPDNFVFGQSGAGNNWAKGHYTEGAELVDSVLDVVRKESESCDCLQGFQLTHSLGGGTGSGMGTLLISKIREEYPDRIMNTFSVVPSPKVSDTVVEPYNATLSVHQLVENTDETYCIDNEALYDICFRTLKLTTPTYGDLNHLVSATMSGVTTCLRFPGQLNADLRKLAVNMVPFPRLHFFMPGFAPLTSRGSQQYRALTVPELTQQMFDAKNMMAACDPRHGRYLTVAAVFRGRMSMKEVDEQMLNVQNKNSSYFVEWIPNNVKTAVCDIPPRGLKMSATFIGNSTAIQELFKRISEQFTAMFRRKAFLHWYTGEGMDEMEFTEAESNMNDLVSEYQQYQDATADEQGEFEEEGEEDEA
T2 sequence (P02550 whole entry): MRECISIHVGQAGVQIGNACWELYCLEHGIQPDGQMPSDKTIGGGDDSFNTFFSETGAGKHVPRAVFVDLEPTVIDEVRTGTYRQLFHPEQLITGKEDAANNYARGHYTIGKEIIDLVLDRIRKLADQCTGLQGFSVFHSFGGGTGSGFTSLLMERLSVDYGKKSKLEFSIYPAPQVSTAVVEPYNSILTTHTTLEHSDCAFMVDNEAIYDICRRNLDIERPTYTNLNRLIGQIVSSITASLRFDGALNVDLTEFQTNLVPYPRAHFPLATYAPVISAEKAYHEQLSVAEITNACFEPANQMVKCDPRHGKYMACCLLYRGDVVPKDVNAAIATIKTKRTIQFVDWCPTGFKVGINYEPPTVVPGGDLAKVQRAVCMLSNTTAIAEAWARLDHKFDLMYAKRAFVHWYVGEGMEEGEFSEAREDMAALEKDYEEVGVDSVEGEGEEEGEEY
T1 sequence (P07437 whole entry): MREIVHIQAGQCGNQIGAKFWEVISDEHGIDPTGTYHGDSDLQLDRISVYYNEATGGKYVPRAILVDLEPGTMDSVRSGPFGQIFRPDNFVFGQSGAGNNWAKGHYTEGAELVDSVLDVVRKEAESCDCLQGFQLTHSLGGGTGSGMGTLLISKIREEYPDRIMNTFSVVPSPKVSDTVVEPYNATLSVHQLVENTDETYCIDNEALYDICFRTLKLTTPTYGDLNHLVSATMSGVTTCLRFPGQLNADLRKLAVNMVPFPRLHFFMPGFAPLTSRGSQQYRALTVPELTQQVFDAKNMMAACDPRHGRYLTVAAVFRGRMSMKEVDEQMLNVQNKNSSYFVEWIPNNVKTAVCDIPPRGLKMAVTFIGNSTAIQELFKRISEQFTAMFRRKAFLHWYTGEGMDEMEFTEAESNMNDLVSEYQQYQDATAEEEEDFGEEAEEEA
T1 sequence (P68363 whole entry): as the sequence (P02550 whole entry) above, with S136L, G232S, A265I, T340S, E358Q counted along it

| Compound | IC50 ([1]; BV-2 cells) [µM] | % NO inh. at 10 μM ([1]; BV-2 cells, LPS) [%] | % Viab. at 10 μM [2] [%] | further results |
| --- | --- | --- | --- | --- |
| CCOC(=O)CCC1(C)C=C(c2ccc(Cl)cc2C)c2ccc(OC)c(O)c2O1 (stereo not drawn) [Compound 12] | 7.45 | 72.3 | 105.6 |  |
| COc1cc2c(c(OC)c1OC)-c1ccc(OC)c(=O)cc1[C@@H](NC(C)=O)CC2 [Colchicine] |  |  |  | inhibition at 10 µM [1, 9]: 51.8%; TNF-α levels compared to that of the DMSO control [3]: < 50%; p65 nuclear translocation in the presence of LPS [4]: < 60%; viability at 10 µM [5]: 114% |
| COc1ccc2c(c1O)OC(C)(C)C=C2c1cccc2c1sc1ccccc12 [Compound 9] | 1 | 90.0 | 103.6 |  |
| COc1ccc2c(c1O)OC(C)(C)C=C2c1ccc(Cl)cc1C [Compound 1] |  |  |  | inhibition at 10 µM [1, 9]: 69.4%; inhibition at 10 µM ([1]; Mus musculus, BV-2 microglial cells, read-out: LPS-mediated NO release inhibited down to): 70%; IC50 ([1]; Mus musculus, BV-2 cells): 5.22 µM; Thermal shift of tubulin in CETSA [6]: slight thermal sensitization; viability at 10 µM [7]: 102% |
| COc1ccc2c(c1O)OC(C)(C)C=C2c1cccc2cccnc12 [Compound 7] | 5.01 | 98.0 | 101.5 |  |
| COC(=O)Nc1nc2ccc(C(=O)c3cccs3)cc2[nH]1 [Nocodazole, reference compound] |  |  |  | inhibition at 10 µM [1, 9]: 54.9%; IC50 ([1]; Mus musculus, BV-2 cells): 13.4 µM; TNF-α levels compared to that of the DMSO control [3]: < 50%; p65 nuclear translocation in the presence of LPS [4]: < 60%; Vmax of microtubule polymerization compared to DMSO control [8]: reduced Vmax; viability at 10 µM [7]: 93.8% |
| CCOC(=O)CCC1(C)C=C(c2cccc3c2oc2ccccc23)c2ccc(OC)c(O)c2O1 (stereo not drawn) [Compound 13] | 1.79 | 101.2 | 111.4 |  |
| COc1ccc2c(c1O)OC(C)(C)C=C2c1cccc(-c2ccccc2)c1 [Compound 11] | 6.71 | 61.6 | 106.1 |  |
| COc1ccc2c(c1O)OC(C)(C)C=C2c1cccc2c1Sc1ccccc1S2 [Compound 10] | 13.1 | 36.8 | 102.1 |  |

Now from value to compound, other results behind:

| IC50 ([1]; BV-2 cells) [µM] | Compound | % NO inh. at 10 μM ([1]; BV-2 cells, LPS) [%] | % Viab. at 10 μM [2] [%] | further results |
| --- | --- | --- | --- | --- |
| 7.19 | COc1ccc2c(c1O)OC(C)(C)C=C2c1ccccc1C [Compound 4] | 73.3 | 106.1 |  |
| 9.89 | COc1ccc2c(c1O)OC(C)(C)C=C2c1cc(C)ccc1C [Compound 5] | 46.9 | 99.7 |  |
| 5.09 | COc1ccccc1C1=CC(C)(C)Oc2c1ccc(OC)c2O [Compound 6] | 87.1 | 113.8 |  |
| 22.3 | COc1ccc2c(c1O)OC(C)(C)C=C2c1ccc(F)cc1 [Compound 3] | 9.9 | 88.0 |  |
| 5.94 | COc1ccc2c(c1O)OC(C)(C)C=C2c1ccc(F)cc1C [Compound 2] | 65.3 | 105.3 |  |
